Laboratory results taken from the NIST ThermoML archive (doi:10.1016/j.jct.2016.05.027).
Numbers after ± are expanded uncertainties.

What was measured:
[1] = Crystal
[2] = Molar enthalpy of transition or fusion; conditions: Crystal; DSC

mass density ([1]; 298.15 K, 101.33 kPa, flotation method): 1242.4 ± 2.6 kg/m3
Normal melting temperature ([1]; DTA): 93.60 ± 1.1 °C
Molar enthalpy of transition or fusion [2]: 5.77 ± 0.225 kcal/mol
Compound: Cc1cccc([N+](=O)[O-])c1N [2-methyl-6-nitroaniline]
